From patent US6479435B1, “Diaryl ethers and processes for their preparation and herbicidal and desiccant compositions containing them” (ISK Americas Incorporated, priority 1997, dated 2002)

How the values were obtained:
Type in all cases: in vivo
[1] = test system: soybean (Glycine max L., var. Pella 86, SOY); test: Post-emerge greenhouse test, crop damage rating; set-up: key to crop damage rating SOY: 0-100 scale: 0 = no damage, 100 = complete death of all plants; conditions: 14 days after application; for crop damage rating SOY: scale 0-100
Method in brief: (§1)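 Compounds in acetone with 0.25% v/v non-ionic surfactant were track-sprayed at 187 l/ha over plants at the 2-3 leaf stage, at 63 to 1000 g ai/ha. Pots were bottom-watered. Injury was scored visually 14 days later on a 0-100 scale, where 0 is no damage and 100 is complete plant death.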

[2] = test system: common ragweed (Ambrosia artemisiifolia L., AMBEL); test: Post-emerge greenhouse herbicide test, phytotoxicity rating; conditions: 14 days after application; for phytotoxicity rating AMBEL: scale 0-100
Method in brief: as §1

[3] = test system: lambsquarters (Chenopodium album, CHEAL); test: as above; conditions: 14 days after application; for phytotoxicity rating CHEAL: scale 0-100
Method in brief: as §1

[4] = test system: ivyleaf morningglory (Ipomoea hederacea, IPOHE); test: as above; conditions: 14 days after application; for phytotoxicity rating IPOHE: scale 0-100
Method in brief: as §1

[5] = test system: green foxtail (Setaria viridis, SETVI); test: as above; conditions: 14 days after application; for phytotoxicity rating SETVI: scale 0-100
Method in brief: as §1

[6] = test system: redroot pigweed (Amaranthus retroflexus, AMARE); test: as above; conditions: 14 days after application; for phytotoxicity rating AMARE: scale 0-100
Method in brief: as §1

[7] = test system: barnyardgrass (Echinochloa crusgalli, ECHCG); test: as above; conditions: 14 days after application; for phytotoxicity rating ECHCG: scale 0-100
Method in brief: as §1

[8] = test system: sicklepod (Cassia obtusifolia, CASOB); test: as above; conditions: 14 days after application; for phytotoxicity rating CASOB: scale 0-100
Method in brief: as §1

[9] = test system: large crabgrass (Digitaria sanguinalis, DIGSA); test: as above; conditions: 14 days after application; for phytotoxicity rating DIGSA: scale 0-100
Method in brief: as §1

[10] = test system: Johnsongrass (Sorghum halepense, SORHA); test: as above; conditions: 14 days after application; for phytotoxicity rating SORHA: scale 0-100
Method in brief: as §1

[11] = test system: velvetleaf (Abutilon theophrasti, ABUTH); test: as above; conditions: 14 days after application; for phytotoxicity rating ABUTH: scale 0-100
Method in brief: as §1

[12] = test system: upland rice (Oryza sp., var.Tebonnet, RICE); test: Post-emerge greenhouse test, crop damage rating; conditions: 14 days after application; for crop damage rating RICE: scale 0-100
Method in brief: as §1

[13] = test system: field corn (Zea mays L., var. Dekalb 535, CORN); test: Post-emerge greenhouse test, crop damage rating; conditions: 14 days after application; for crop damage rating CORN: scale 0-100
Method in brief: as §1

[14] = test system: soybean (Glycine max L., var. Pella 86, SOY); test: Pre-emerge greenhouse test, crop damage rating; set-up: key to SOY crop damage rating: 0 = no damage, 100 = complete death of all plants; conditions: 14 days after application, rating scale 0-100
Method in brief: (§2)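 Seeds sown in sandy loam mix one day before track-sprayer application of compounds in acetone at 125–1000 g ai/ha (187 l/ha), then surface-watered to incorporate and bottom-watered. Visual rating 14 days after application on a 0–100 scale (0 = no damage, 100 = all plants dead).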

[15] = test system: lambsquarters (Chenopodium album, CHEAL); test: Pre-emerge greenhouse herbicide test, phytotoxicity rating; conditions: 14 days after application, rating scale 0-100
Method in brief: as §2

[16] = test system: ivyleaf morningglory (Ipomoea hederacea, IPOHE); test: as above; conditions: 14 days after application, rating scale 0-100
Method in brief: as §2

[17] = test system: green foxtail (Setaria viridis, SETVI); test: as above; conditions: 14 days after application, rating scale 0-100
Method in brief: as §2

[18] = test system: redroot pigweed (Amaranthus retroflexus, AMARE); test: as above; conditions: 14 days after application, rating scale 0-100
Method in brief: as §2

[19] = test system: barnyardgrass (Echinochloa crusgalli, ECHCG); test: as above; conditions: 14 days after application, rating scale 0-100
Method in brief: as §2

[20] = test system: sicklepod (Cassia obtusifolia, CASOB); test: as above; conditions: 14 days after application, rating scale 0-100
Method in brief: as §2

[21] = test system: large crabgrass (Digitaria sanguinalis, DIGSA); test: as above; conditions: 14 days after application, rating scale 0-100
Method in brief: as §2

[22] = test system: Johnsongrass (Sorghum halepense, SORHA); test: as above; conditions: 14 days after application, rating scale 0-100
Method in brief: as §2

[23] = test system: velvetleaf (Abutilon theophrasti, ABUTH); test: as above; conditions: 14 days after application, rating scale 0-100
Method in brief: as §2

[24] = test system: common ragweed (Ambrosia artemisiifolia L., AMBEL); test: as above; conditions: 14 days after application, rating scale 0-100
Method in brief: as §2

[25] = test system: upland rice (Oryza sp., var.Tebonnet, RICE); test: Pre-emerge greenhouse test, crop damage rating; conditions: 14 days after application, rating scale 0-100
Method in brief: as §2

[26] = test system: field corn (Zea mays L., var. Dekalb 535, CORN); test: Pre-emerge greenhouse test, crop damage rating; conditions: 14 days after application, rating scale 0-100
Method in brief: as §2

O=c1n(-c2cc(Oc3cccc(F)n3)c(Cl)cc2F)c(=S)n2n1CCCC2 [Compound 8-25]
40: phytotoxicity rating DIGSA ([9]; rate 500 g ai/ha) | phytotoxicity rating SORHA ([10]; rate 63 g ai/ha) | ECHCG phytotoxicity rating ([19]; Rate 125 g al/ha) | AMBEL phytotoxicity rating ([24]; Rate 125 g al/ha) | CORN crop damage rating ([26]; Rate 500 g al/ha)
70: crop damage rating SOY ([1]; rate 63 g ai/ha) | phytotoxicity rating CASOB ([8]; rate 63 g ai/ha) | CASOB phytotoxicity rating ([20]; Rate 125 g al/ha) | SORHA phytotoxicity rating ([22]; Rate 125 g al/ha) | RICE crop damage rating ([25]; Rate 500 g al/ha)
20: phytotoxicity rating ECHCG ([7]; rate 63 g ai/ha) | SOY crop damage rating ([14]; Rate 500 g al/ha) | IPOHE phytotoxicity rating ([16]; Rate 125 g al/ha) | IPOHE phytotoxicity rating ([16]; Rate 500 g al/ha)
80: phytotoxicity rating SETVI ([5]; rate 63 g ai/ha)
10: phytotoxicity rating DIGSA ([9]; rate 63 g ai/ha) | crop damage rating RICE ([12]; rate 63 g ai/ha) | crop damage rating CORN ([13]; rate 63 g ai/ha)
95: phytotoxicity rating SETVI ([5]; rate 500 g ai/ha)
25: crop damage rating CORN ([13]; rate 500 g ai/ha)
100: phytotoxicity rating CHEAL ([3]; rate 500 g ai/ha) | phytotoxicity rating IPOHE ([4]; rate 63 g ai/ha) | phytotoxicity rating IPOHE ([4]; rate 500 g ai/ha) | phytotoxicity rating AMARE ([6]; rate 63 g ai/ha) | phytotoxicity rating AMARE ([6]; rate 500 g ai/ha) | phytotoxicity rating CASOB ([8]; rate 500 g ai/ha) | phytotoxicity rating ABUTH ([11]; rate 63 g ai/ha) | phytotoxicity rating ABUTH ([11]; rate 500 g ai/ha) | CHEAL phytotoxicity rating ([15]; Rate 125 g al/ha) | CHEAL phytotoxicity rating ([15]; Rate 500 g al/ha) | SETVI phytotoxicity rating ([17]; Rate 125 g al/ha) | SETVI phytotoxicity rating ([17]; Rate 500 g al/ha) | AMARE phytotoxicity rating ([18]; Rate 125 g al/ha) | AMARE phytotoxicity rating ([18]; Rate 500 g al/ha) | ECHCG phytotoxicity rating ([19]; Rate 500 g al/ha) | CASOB phytotoxicity rating ([20]; Rate 500 g al/ha) | DIGSA phytotoxicity rating ([21]; Rate 500 g al/ha) | ABUTH phytotoxicity rating ([23]; Rate 125 g al/ha) | ABUTH phytotoxicity rating ([23]; Rate 500 g al/ha)
15: RICE crop damage rating ([25]; Rate 125 g al/ha)
0: SOY crop damage rating ([14]; Rate 125 g al/ha) | CORN crop damage rating ([26]; Rate 125 g al/ha)
90: crop damage rating SOY ([1]; rate 500 g ai/ha) | phytotoxicity rating AMBEL ([2]; rate 63 g ai/ha) | phytotoxicity rating AMBEL ([2]; rate 500 g ai/ha) | phytotoxicity rating CHEAL ([3]; rate 63 g ai/ha) | SORHA phytotoxicity rating ([22]; Rate 500 g al/ha) | AMBEL phytotoxicity rating ([24]; Rate 500 g al/ha)
60: phytotoxicity rating SORHA ([10]; rate 500 g ai/ha) | crop damage rating RICE ([12]; rate 500 g ai/ha)
85: DIGSA phytotoxicity rating ([21]; Rate 125 g al/ha)
65: phytotoxicity rating ECHCG ([7]; rate 500 g ai/ha)

O=c1n(CCCF)nnn1-c1cc(Oc2ncccc2[N+](=O)[O-])c(Cl)cc1F [Compound 6-2]
0: ECHCG phytotoxicity rating (0-100) ([7]; 63 g al/ha) | CASOB phytotoxicity rating (0-100) ([8]; 63 g al/ha) | DIGSA phytotoxicity rating (0-100) ([9]; 63 g al/ha) | DIGSA phytotoxicity rating (0-100) ([9]; 500 g al/ha) | SORHA phytotoxicity rating (0-100) ([10]; 63 g al/ha) | RICE crop damage rating (0-100) ([12]; 63 g al/ha) | phytotoxicity rating ECHCG ([19]; 125 g ai/ha) | phytotoxicity rating CASOB ([20]; 500 g ai/ha) | phytotoxicity rating DIGSA ([21]; 125 g ai/ha) | phytotoxicity rating SORHA ([22]; 125 g ai/ha) | phytotoxicity rating SORHA ([22]; 500 g ai/ha) | crop damage rating CORN ([26]; 125 g ai/ha) | crop damage rating CORN ([26]; 500 g ai/ha)
90: CHEAL phytotoxicity rating (0-100) ([3]; 500 g al/ha) | IPOHE phytotoxicity rating (0-100) ([4]; 500 g al/ha) | phytotoxicity rating ABUTH ([23]; 125 g ai/ha)
99: phytotoxicity rating AMARE ([18]; 500 g ai/ha)
30: SOY crop damage rating (0-100) ([1]; 500 g al/ha) | AMBEL phytotoxicity rating (0-100) ([2]; 500 g al/ha) | ECHCG phytotoxicity rating (0-100) ([7]; 500 g al/ha) | RICE crop damage rating (0-100) ([12]; 500 g al/ha) | phytotoxicity rating SETVI ([17]; 125 g ai/ha) | phytotoxicity rating AMBEL ([24]; 125 g ai/ha)
60: phytotoxicity rating DIGSA ([21]; 500 g ai/ha)
95: AMARE phytotoxicity rating (0-100) ([6]; 500 g al/ha) | phytotoxicity rating AMARE ([18]; 125 g ai/ha)
100: ABUTH phytotoxicity rating (0-100) ([11]; 500 g al/ha) | phytotoxicity rating CHEAL ([15]; 125 g ai/ha) | phytotoxicity rating CHEAL ([15]; 500 g ai/ha) | phytotoxicity rating ABUTH ([23]; 500 g ai/ha)
15: crop damage rating SOY ([14]; 500 g ai/ha)
20: SOY crop damage rating (0-100) ([1]; 63 g al/ha) | IPOHE phytotoxicity rating (0-100) ([4]; 63 g al/ha) | SORHA phytotoxicity rating (0-100) ([10]; 500 g al/ha) | phytotoxicity rating CASOB ([20]; 125 g ai/ha) | crop damage rating RICE ([25]; 125 g ai/ha)
70: phytotoxicity rating SETVI ([17]; 500 g ai/ha)
40: AMARE phytotoxicity rating (0-100) ([6]; 63 g al/ha) | phytotoxicity rating IPOHE ([16]; 500 g ai/ha) | phytotoxicity rating AMBEL ([24]; 500 g ai/ha)
98: ABUTH phytotoxicity rating (0-100) ([11]; 63 g al/ha)
50: CHEAL phytotoxicity rating (0-100) ([3]; 63 g al/ha)
5: CORN crop damage rating (0-100) ([13]; 63 g al/ha) | CORN crop damage rating (0-100) ([13]; 500 g al/ha)
10: AMBEL phytotoxicity rating (0-100) ([2]; 63 g al/ha) | SETVI phytotoxicity rating (0-100) ([5]; 63 g al/ha) | SETVI phytotoxicity rating (0-100) ([5]; 500 g al/ha) | CASOB phytotoxicity rating (0-100) ([8]; 500 g al/ha) | crop damage rating SOY ([14]; 125 g ai/ha) | phytotoxicity rating IPOHE ([16]; 125 g ai/ha) | phytotoxicity rating ECHCG ([19]; 500 g ai/ha) | crop damage rating RICE ([25]; 500 g ai/ha)
